From PubChem BioAssay AID192 (DTP/NCI, 2004) come the findings set out here.

This assay deals with BDF1 mice, B16 melanoma ip, median survival T/C. As to the kind of experiment: NCI In Vivo Anticancer Drug Screen. Data for tumor model B16 Melanoma (intraperitoneal) in B6D2F1 (BDF1) mice. The settings on record: endpoint: median survival time, higher = longer survival. Summed up:
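Antitumor activity is assessed in mice bearing a transplanted tumor, with survival or tumor size compared against vehicle-dosed controls and expressed as T/C.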

The mark [1] stands for this setting: dose: 6.25 mg/kg/injection, schedule: Q01DX009 (ip), vehicle: Klucel (hydroxypropylcellulose) (HPC).
Setting [2] is: dose: 12.5 mg/kg/injection, schedule: Q01DX009 (ip), vehicle: Klucel (hydroxypropylcellulose) (HPC).

Several values for one entry are separate records, joined by “and”; a condition that tells them apart may be missing. Equal values may be shown once. Toxic doses and inconclusive results are not listed.

Regarding `C(=N\C(/N=C/c1ccco1)c1ccco1)/c1ccco1`, the T/C reads like this: (dose: 40.0 mg/kg/injection, schedule: Q01DX009 (ip), vehicle: Klucel (hydroxypropylcellulose) (HPC)) 94 % of control; (dose: 80.0 mg/kg/injection, schedule: Q01DX009 (ip), vehicle: Klucel (hydroxypropylcellulose) (HPC)) 89 % of control; (dose: 160.0 mg/kg/injection, schedule: Q01DX009 (ip), vehicle: Klucel (hydroxypropylcellulose) (HPC)) 97 % of control; (dose: 320.0 mg/kg/injection, schedule: Q01DX009 (ip), vehicle: Klucel (hydroxypropylcellulose) (HPC)) 92 % of control.
Turning to `COc1ccc2cc3[n+](cc2c1OC)CCc1cc2c(cc1-3)OCO2`, the T/C (dose: 1.5 mg/kg/injection, schedule: Q01DX009 (ip), vehicle: carboxymethylcellulose (CMC)) was 105 % of control; the T/C (dose: 2.5 mg/kg/injection, schedule: Q01DX009 (ip), vehicle: Klucel (hydroxypropylcellulose) (HPC)) is 106 % of control; the T/C (dose: 2.5 mg/kg/injection, schedule: Q01DX009 (ip), vehicle: saline with Tween-80) was 100 % of control; the T/C (dose: 2.5 mg/kg/injection, schedule: Q02DX005 (ip), vehicle: Klucel (hydroxypropylcellulose) (HPC)) was 109 % of control; the T/C (dose: 3.0 mg/kg/injection, schedule: Q01DX009 (ip), vehicle: carboxymethylcellulose (CMC)) was 96 % of control; the T/C (dose: 3.12 mg/kg/injection, schedule: Q01DX009 (ip), vehicle: carboxymethylcellulose (CMC)) was 95 % of control. In addition, the T/C runs as follows: (dose: 5.0 mg/kg/injection, schedule: Q01DX009 (ip), vehicle: Klucel (hydroxypropylcellulose) (HPC)) 108 % of control; (dose: 5.0 mg/kg/injection, schedule: Q01DX009 (ip), vehicle: saline with Tween-80) 110 % of control; (dose: 5.0 mg/kg/injection, schedule: Q02DX005 (ip), vehicle: Klucel (hydroxypropylcellulose) (HPC)) 110 % of control; under setting [1], 105 % of control; (dose: 10.0 mg/kg/injection, schedule: Q01DX009 (ip), vehicle: saline with Tween-80) 102 % of control; (dose: 10.0 mg/kg/injection, schedule: Q02DX005 (ip), vehicle: Klucel (hydroxypropylcellulose) (HPC)) 100 % of control. Also, under setting [2], the T/C was 106 % of control.
On to `C[C@]12CCC(=O)C=C1CC[C@@H]1[C@@H]2[C@@H](O)C[C@@]2(C)[C@H]1CC[C@]2(O)C(=O)CO`, for which the T/C (dose: 40.0 mg/kg/injection, schedule: Q02DX009 (ip), vehicle: Klucel (hydroxypropylcellulose) (HPC)) was 87 % of control; the T/C (dose: 80.0 mg/kg/injection, schedule: Q02DX009 (ip), vehicle: Klucel (hydroxypropylcellulose) (HPC)) was 102 % of control; the T/C (dose: 160.0 mg/kg/injection, schedule: Q02DX009 (ip), vehicle: Klucel (hydroxypropylcellulose) (HPC)) is 92 % of control.
With `Nc1nc(=S)c2ncn(C3OC(CO)C(O)C3O)c2[nH]1` (stereo unspecified), the T/C is, setting by setting: (dose: 0.5 mg/kg/injection, schedule: Q01DX009 (ip), vehicle: saline with Tween-80) 109 % of control; (dose: 1.0 mg/kg/injection, schedule: Q01DX009 (ip), vehicle: saline sonified) 106 % of control; (dose: 1.0 mg/kg/injection, schedule: Q01DX009 (ip), vehicle: saline with Tween-80) 122 % of control; (dose: 2.0 mg/kg/injection, schedule: Q01DX009 (ip), vehicle: saline sonified) 102 % of control; (dose: 2.0 mg/kg/injection, schedule: Q01DX009 (ip), vehicle: saline with Tween-80) 113 % of control.
For the compound `CN(CCCN(C)CCC1CCCCC1)CCC1CCCCC1`, the T/C is, setting by setting: (dose: 12.5 mg/kg/injection, schedule: Q01DX009 (ip), vehicle: saline with Tween-80) 92 % of control; (dose: 25.0 mg/kg/injection, schedule: Q01DX009 (ip), vehicle: saline with Tween-80) 95 % of control.
Regarding `O=NN(CCCl)C(=O)NC1CCCCC1`, the T/C is 102 % of control and 121 % of control (dose: 4.0 mg/kg/injection, schedule: Q01DX001 (ip), vehicle: Klucel (hydroxypropylcellulose) (HPC)); 107 % of control (dose: 4.0 mg/kg/injection, schedule: Q01DX001 (ip), vehicle: saline); 107 % of control (dose: 7.5 mg/kg/injection, schedule: Q01DX001 (ip), vehicle: other); 102 % of control (dose: 8.0 mg/kg/injection, schedule: Q01DX001 (ip), vehicle: Klucel (hydroxypropylcellulose) (HPC)); 115 % of control (dose: 12.5 mg/kg/injection, schedule: Q01DX010 (ip), vehicle: saline); 110 % of control (dose: 25.0 mg/kg/injection, schedule: Q01DX010 (ip), vehicle: saline). Also, the T/C was 198 % of control (dose: 30.0 mg/kg/injection, schedule: Q01DX001 (ip), vehicle: other); 182 % of control and 312 % of control (dose: 32.0 mg/kg/injection, schedule: Q01DX001 (ip), vehicle: Klucel (hydroxypropylcellulose) (HPC)); 113 % of control (dose: 50.0 mg/kg/injection, schedule: Q01DX010 (ip), vehicle: saline); 102 % of control (dose: 100.0 mg/kg/injection, schedule: Q01DX010 (ip), vehicle: saline).
With `CCC1CN2CCc3cc(OC)c(OC)cc3C2CC1CC1c2cc(OC)c(OC)cc2CCN1C(=O)C(Cc1c[nH]c2ccccc12)NC(=O)OC(C)(C)C` (stereo unspecified), the T/C reads like this: (dose: 8.0 mg/kg/injection, schedule: Q04DX003 (ip), vehicle: saline with Tween-80) 102 % of control; (dose: 16.0 mg/kg/injection, schedule: Q04DX003 (ip), vehicle: saline with Tween-80) 102 % of control; (dose: 32.0 mg/kg/injection, schedule: Q04DX003 (ip), vehicle: saline with Tween-80) 100 % of control; (dose: 64.0 mg/kg/injection, schedule: Q04DX003 (ip), vehicle: saline with Tween-80) 110 % of control; (dose: 128.0 mg/kg/injection, schedule: Q04DX003 (ip), vehicle: saline with Tween-80) 89 % of control.
For the compound `COC(=O)[c-]1[c-][c-][c-][c-]1.COC(=O)[c-]1[c-][c-][c-][c-]1.[Fe]`, the T/C by setting is: (dose: 18.0 mg/kg/injection, schedule: Q01DX009 (ip), vehicle: Klucel (hydroxypropylcellulose) (HPC)) 95 % of control and 103 % of control; (dose: 28.75 mg/kg/injection, schedule: Q01DX009 (ip), vehicle: Klucel (hydroxypropylcellulose) (HPC)) 104 % of control and 106 % of control; (dose: 33.75 mg/kg/injection, schedule: Q04DX003 (ip), vehicle: Klucel (hydroxypropylcellulose) (HPC)) 114 % of control; (dose: 45.0 mg/kg/injection, schedule: Q01DX009 (ip), vehicle: Klucel (hydroxypropylcellulose) (HPC)) 103 % of control and 118 % of control; (dose: 67.5 mg/kg/injection, schedule: Q04DX003 (ip), vehicle: Klucel (hydroxypropylcellulose) (HPC)) 92 % of control.
For `COC(COC(N)=O)C1=C(N2CC2)C(=O)C(C)=C(N2CC2)C1=O` (stereo unspecified), the T/C is, setting by setting: (dose: 0.03 mg/kg/injection, schedule: Q01DX009 (ip), vehicle: saline) 93 % of control and 107 % of control and 122 % of control; (dose: 0.06 mg/kg/injection, schedule: Q01DX009 (ip), vehicle: saline) 101 % of control and 114 % of control; (dose: 0.12 mg/kg/injection, schedule: Q01DX009 (ip), vehicle: saline) 123 % of control; (dose: 0.25 mg/kg/injection, schedule: Q01DX009 (ip), vehicle: saline) 163 % of control; (dose: 0.5 mg/kg/injection, schedule: Q01DX009 (ip), vehicle: saline) 179 % of control and 196 % of control.
As to `C=C1C(=O)O[C@@H]2C[C@@H](C)[C@@H]3C=CC(=O)[C@@]3(C)[C@@H](O)[C@H]12`, the T/C (dose: 2.0 mg/kg/injection, schedule: Q01DX009 (ip), vehicle: saline + alcohol) is 120 % of control; the T/C (dose: 2.0 mg/kg/injection, schedule: Q01DX009 (ip), vehicle: saline) is 104 % of control; the T/C (dose: 4.0 mg/kg/injection, schedule: Q01DX009 (ip), vehicle: saline + alcohol) is 115 % of control; the T/C (dose: 4.0 mg/kg/injection, schedule: Q01DX009 (ip), vehicle: saline) is 95 % of control; the T/C (dose: 8.0 mg/kg/injection, schedule: Q01DX009 (ip), vehicle: saline + alcohol) was 115 % of control; the T/C (dose: 8.0 mg/kg/injection, schedule: Q01DX009 (ip), vehicle: saline) is 105 % of control.
For `CC(=O)Nc1ccc(OC(=O)Nc2ccccc2Cl)cc1`, the T/C was 93 % of control (dose: 100.0 mg/kg/injection, schedule: Q04DX003 (ip), vehicle: Klucel (hydroxypropylcellulose) (HPC)); 113 % of control (dose: 200.0 mg/kg/injection, schedule: Q04DX003 (ip), vehicle: Klucel (hydroxypropylcellulose) (HPC)); 106 % of control (dose: 400.0 mg/kg/injection, schedule: Q04DX003 (ip), vehicle: Klucel (hydroxypropylcellulose) (HPC)).
For `C=CS(C=C)=NS(=O)(=O)c1ccc(C)cc1`, the T/C by setting is: (dose: 1.56 mg/kg/injection, schedule: Q01DX009 (ip), vehicle: Klucel (hydroxypropylcellulose) (HPC)) 95 % of control and 108 % of control; (dose: 3.12 mg/kg/injection, schedule: Q01DX009 (ip), vehicle: Klucel (hydroxypropylcellulose) (HPC)) 95 % of control and 101 % of control; under setting [1], 97 % of control and 98 % of control; under setting [2], 107 % of control and 110 % of control; (dose: 25.0 mg/kg/injection, schedule: Q01DX009 (ip), vehicle: Klucel (hydroxypropylcellulose) (HPC)) 88 % of control and 95 % of control.
